# Data reported in patent EP0684822B1, “CARBOCYCLIC DEOXYGUANOSINE ANALOGS FOR THE TREATMENT OF VIRAL INFECTIONS” (SOUTHERN RESEARCH INSTITUTE, priority 1993, dated 1994).
# Where “and” joins values, the source holds several entries; their conditions need not be identical. Identical values can stand only once.
# Legend:
# [1] = test system: HSV-1 (strain 377, TK+); experiment: Antiviral activity against HSV-1; format: cell-based
# Method: (§1) D-2'-CdG and L-2'-CdG were tested, alongside D,L-2'-CdG, against both HSV-1 (strain 377, TK+; obtained from Dr. Earl Kern, University of Alabama) and HSV-2 (strain MS, TK+; also obtained from Dr. Earl Kern). In these tests (Table 5), Ara-A and acyclovir (ACV) were the positive control drugs. In four tests vs. HSV-1, the antiviral activity (VR) and potency (MIC50) of D-2'-CdG were approximately the same as those of racemic 2-CdG. L-2'-CdG was only modestly active.
# [2] = test system: HSV-2 (strain MS, TK+); experiment: Antiviral activity against HSV-2; format: cell-based
# Method: as §1
# These compounds were tested against HSV-2(TK^+). The VR of ACV was somewhat higher than the VR values of D-2'-CdG and D,L-2'-CdG, but the values of MIC50 of the two forms of 2'-CdG were lower. In addition, experiments comparing the antiviral activity D-2'-CdG with acyclovir against HSV-1 in human foreskin fibroblasts have shown an even greater potency, in favor of D-2'-CdG.
# [3] = test system: HBV; experiment: HBV DNA production and replication in 2.2.15 cell cultures; format: cell-based, Hepatitis B virus (HBV); conditions: 100 uM
# Method: 2'-CdG was tested at three concentrations (50 ng/ml, 500 ng/ml, and 5 ug/ml) against the HBV-producing, human liver cell line, 2.2.15 (Sells et al., J. Virol. 62:2836, 1989). A racemic (D,L) preparation, as well as the purified D and L isomers were tested. For these analyses compounds were tested in duplicate at all concentrations. Ara-AMP and ddG (2'3'-dideoxyguanosine) were used as HBV inhibitory control compounds. […] The nucleoside analog, ddG was used as an additional control compound since ddG has activity against duck hepatitis B virus in chronically infected Peking ducks (Lee et al., Antimicrob. Agents Chemother. 33:336, 1989) and 2'-CdG is also a deoxyguanosine analog.
# 2.2.15 cells were seeded in 6 well culture plates and grown to confluence over a 10 day period in medium with 5% FBS. Test compounds were then added daily for a continuous 10 day period in medium with 1% dialyzed FBS. […] Compounds were tested, in duplicate cultures, at 3 concentrations covering a 100-fold range. Culture medium (changed daily during the treatment period) was collected and stored for analysis of extracellular (virion) HBV DNA from days 0, 3, 6, and 10 of the treatment period. This allowed for an analysis of the level of HBV virion production during discrete 24 hour intervals and reduced the potential for the buildup of toxic metabolites derived from the test compounds. Treated cells were lysed following the 10th day of treatment for the analysis of intracellular HBV genomic forms. HBV DNA was analyzed in a quantitative manner for (i) overall levels (both extracellular and intracellular DNA) and (ii) the relative rate of HBV replication (intracellular DNA only).
# HBV DNA levels were measured by comparison to known amounts of HBV DNA standards applied to every nitrocellulose filter (gel or slot blot) using an AMBIS Beta Scanner. Standard curves, generated by multiple analyses, were used to correlate CPM measurements with relative levels of target HBV DNA. The levels of HBV DNA in each of three classes of intracellular viral genomic forms were individually quantitated: integrated HBV DNA, episomal monomeric genomes and HBV DNA replication intermediates (RI). Integrated HBV DNA was used to normalize the relative amounts of DNA in each lane because the levels of this class of HBV DNA would be expected to remain constant on a per cell basis. The levels of the monomeric HBV genomes and RI were used as an indicator of the relative level of HBV replication.
# [4] = test system: human CMV; experiment: In vitro activity against human CMV in human foreskin fibroblast cells; format: cell-based; conditions: Human betaherpesvirus 5, read-out: ED50 value (median dose at which 50% antiviral efficacy is observed)
# Method: The in vitro activity of D-2'-CdG was also compared with the current investigational drug of choice for human CMV, DHPG. These experiments were carried out in human foreskin fibroblast cells.
# [5] = molecular target: T1, HSV-1 TK (Human herpesvirus 1, UniProt P0DTH5); experiment: Competitive inhibition of [3H]-thymidine phosphorylation by partially purified HSV-1 TK; format: biochemical
# T1 construct: HSV thymidine kinase (HSV TK) was isolated from HELA (BU25) cells infected with the SW148 strain of HSV-1; made in house; host or cells: HeLa (BU25) thymidine-kinase-deficient cells infected with HSV-1 strain S148/SW148
# T1 sequence (P0DTH5 whole entry): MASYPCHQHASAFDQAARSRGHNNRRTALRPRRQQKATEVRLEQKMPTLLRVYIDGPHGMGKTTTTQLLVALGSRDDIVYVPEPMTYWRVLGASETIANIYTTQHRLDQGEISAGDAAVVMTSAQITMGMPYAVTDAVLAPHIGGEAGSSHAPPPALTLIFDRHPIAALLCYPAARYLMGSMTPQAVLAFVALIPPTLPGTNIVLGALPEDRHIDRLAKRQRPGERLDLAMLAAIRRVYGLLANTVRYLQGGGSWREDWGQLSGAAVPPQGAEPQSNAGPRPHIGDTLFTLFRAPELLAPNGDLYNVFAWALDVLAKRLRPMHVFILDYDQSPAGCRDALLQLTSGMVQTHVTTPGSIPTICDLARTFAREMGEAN
# Method: The Ki's were determined from a plot of the slope of each line versus the concentration of the competitor (D-, L, or D,L-2'CdG) and are summarized below: TABLE 2
# [6] = 24 hours following 10th day of treatment
smiles,measurement,setting,value
"Nc1ncnc2c1ncn2[C@@H]1O[C@H](CO)[C@@H](O)[C@@H]1O [Ara-A, adenosine arabinoside, reference compound]",VR,"[1]; HSV-1, range of tests",1.6-2.5
same,EC50,"[1]; Human alphaherpesvirus 1, read-out: Mic50",10 to 34 µg/mL
same,VR,[2]; HSV-2,1.3
same,EC50,"[2]; Human alphaherpesvirus 2, read-out: Mic50",50 µg/mL
"Nc1nc2c(ncn2[C@H]2CC[C@@H](CO)O2)c(=O)[nH]1 [DDG, 2'3'-dideoxyguanosine, reference compound]",INTRACELLULAR HBV DNA INTEG.,[3]; [6],1.6 PG/UG CELL DNA and 1.7 PG/UG CELL DNA
same,INTRACELLULAR HBV DNA MONO.,[3]; [6],0.2 PG/UG CELL DNA and 0.1 PG/UG CELL DNA
same,INTRACELLULAR HBV DNA RI,[3]; [6],0.1 PG/UG CELL DNA
same,HBV DNA IN CULTURE MEDIUM DAY 0,[3]; day 0 of treatment,49 pg/mL and 58 pg/mL
same,HBV DNA IN CULTURE MEDIUM DAY 3,[3]; day 3,35 pg/mL and 41 pg/mL
same,HBV DNA IN CULTURE MEDIUM DAY 10,[3]; day 10,0 pg/mL
"Nc1nc(O)c2ncn(COC(CO)CO)c2n1 [DHPG, dihydroxy propoxymethyl guanine, reference compound]",EC50,[4],0.2 µg/mL
"Nc1nc2c(ncn2[C@H]2C[C@H](O)[C@@H](CO)O2)c(=O)[nH]1 [dGuo, reference compound]",Ki,[5],10.5 µM
